Patent US10927107B2, “Phenyl [a]indole[2,3-g]quinolizine compounds, preparation method therefor, pharmaceutical composition, and applications thereof” (Shanghai Institute of Materia Medica, Chinese Academy of …, priority 2016, dated 2021)
Like-named read-outs stand apart in the source and are kept apart here.

Legend:
[1] = system: Syrian golden hamsters (high-fat diet, hyperlipidemia model); assay: In vivo lipid-lowering activity in high-fat diet golden hamsters; design: species or system Syrian golden hamster; conditions: for CHOL / HDL-C / LDL-C / TG: high-fat diet, serum; for contents of cholesterol (CHOL), triglyceride (TG) and low density lipoprotein (LDL-C) in the blood: hyperlipidemia model
Description: After adaptively feeding Syrian golden hamsters (male, 80-100 g) for a week, all hamsters were fed with high-fat diet. Two weeks later, blood was collected from the orbital venous plexus, serum was separated, and levels of total cholesterol (TC), triglyceride (TG), high-density lipoprotein (HDL-C) and low-density lipoprotein (LDL-C) in serum were measured. They were evenly grouped according to blood lipid levels into […]: model control group, A1 intragastric administration group, A1 intraperitoneal administration group, A5 intragastric administration group, A5 intraperitoneal administration group, A55 intragastric administration group, A55 intraperitoneal administration group, B5 intragastric administration group, B5 intraperitoneal administration group, and the animals in each group were continued to be administered with high fat diet. […] […] Blood lipid levels and body weights were measured every 10 days. After three weeks, the animals were sacrificed and the liver was stored in a −80° C. refrigerator.

[2] = system: HepG2 cells; assay: In vitro lipid-lowering activity: DiI-LDL uptake in HepG2 cells; format: cell-based; conditions: Homo sapiens, test compound 5 uM, 24 h, DiI-LDL 20 ug/ml, 3 h, FLU of sample group/FLU of blank group x100%, read-out: LDL uptake rate
Description: HepG2 cells were inoculated in 24-well plates, cultured in DMEM containing 10% FBS for 24 h or 48 h, and then transferred to DMEM containing 2% defatted serum and cultivated for 24 h. The old culture solution was discarded and replaced with new 2% defatted serum DMEM, and a test compound (the working concentration of which is 5 uM, triplicate for each sample) was added and incubated for 24 h. The old culture solution was abandoned and DMEM containing DiI-LDL (20 ug/ml) was added (300 ul/per 24 wells), incubated for 3 h. DMEM containing DiI-LDL was discarded, and cells were rinsed twice with PBS containing 0.4% BSA, and 3 times with PBS to remove excess DiI-LDL. Isopropanol was added (500 ul/per well of a 24-well plate), and was kept in darkness. After shaken for 20 minutes, 200 ul of supernatant was sucked to a black fluorescent plate, and fluorescence intensity (FLU) was detected at excitation light 520 nm and emission light 578 nm. The experimental results were calculated: LDL uptake rate=(FLU value of sample group to be tested/FLU value of blank group)×100%.

[3] = molecular target: T1, α1A-adrenergic receptor (α1A-AR) (Homo sapiens, UniProt P35348); assay: Antagonistic activity on α1A-AR: calcium fluorescence in HEK293 cells stimulated with phenylephrine; format: cell-based
T1 construct: expressed in transfected cells; host or cells: HEK293
T1 sequence (P35348 1-466): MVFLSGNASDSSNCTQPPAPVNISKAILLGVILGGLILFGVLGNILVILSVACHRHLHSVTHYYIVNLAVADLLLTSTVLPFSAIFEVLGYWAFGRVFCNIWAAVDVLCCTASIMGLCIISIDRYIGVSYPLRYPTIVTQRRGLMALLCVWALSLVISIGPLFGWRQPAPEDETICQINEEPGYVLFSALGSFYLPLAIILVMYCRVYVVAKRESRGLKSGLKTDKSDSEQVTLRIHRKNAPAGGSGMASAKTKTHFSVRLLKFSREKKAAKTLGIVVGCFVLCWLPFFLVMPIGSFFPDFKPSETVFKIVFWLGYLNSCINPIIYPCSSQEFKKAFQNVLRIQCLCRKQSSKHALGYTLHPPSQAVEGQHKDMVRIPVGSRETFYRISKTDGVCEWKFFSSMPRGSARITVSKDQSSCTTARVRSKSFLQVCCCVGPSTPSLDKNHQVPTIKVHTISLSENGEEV
Description: HEK293 cells stably expressing α1A-adrenergic receptor (α1A-AR) and G protein […] were seeded in 96-well plates. After 24 hours of culture, the medium was removed, and 40 μL of Hank's balanced salt solution (HBSS: containing 5.4 mM KCl, 0.3 mM Na2HPO4, 0.4 mM KH2PO4, 4.2 mM NaHCO3, 1.3 mM CaCl2, 0.5 mM MgCl2, 0.6 mM MgSO4, 137 mM NaCl, 5.6 mM D-glucose and 250 μM sulfinpyridone, pH 7.4) containing 2 μM of MFluo-4AM was added to each well, and incubated for 45 minutes in an incubator. The dye was aspirated and 50 μL of HBSS containing a test compound or 1% DMSO (negative control) was added and incubated for 10 minutes at room temperature, and then read with Flex Station 3 microplate reader. At the specified time point, 25 μL of agonist phenylephrine (final concentration 30 nM) will be automatically added by the detector into the reaction system, and simultaneously stimulated with 485 nm light, and the change in intensity of fluorescence caused by the change in the intracellular calcium ion concentration was detected at 525 nm. […] The response rate of different doses of the same drug was analyzed by GraphPad Prism software to obtain a dose-response curve and the IC50 value was measured. Each experiment was performed in […].

[4] = Rat pharmacokinetics; format: in vivo; design: AUC(0-t) / AUC(0-inf): concentration or dose not given beside the values; conditions: plasma; for AUC(0-inf): read-out: AUCINF—obs; for clearance: read-out: CL—obs (converted); for MRT inf: read-out: MRTINF—obs; for Vd: read-out: Vss—obs
Description: (§1) A1 10 μL of a plasma sample was taken in a centrifuge tube and 100 μL of methanol:acetonitrile (1:1, v/v) was added, vortexed for 1 min, centrifugated (14000 rpm) for 5 min, and 50 μL supernatant was taken, mixed with equal volume of water, and analysised after vortex mixing. The linear range of A1 is: 0.1-300 ng/mL for oral administration and 1-3000 ng/mL for intravenous injection.
as §1, with “A55” for “A1”, “0.3-3000” for “1-3000”

[5] = abdominal (intraperitoneal) 30 mg/kg once a day for three weeks
[6] = oral (intragastric) 30 mg/kg once a day for three weeks
[7] = HEK293 cells expressing α1A-AR, agonist phenylephrine 30 nM, calcium fluorescence, read-out: α1A-AR/IC50

Question: What does the source list for `COc1ccc2c(c1)c1c(n2CO)CN2CCc3cc(OC)c(OCc4ccc(F)cc4)cc3C2C1` (stereo not shown) [Example A5, (2-((4-fluorobenzyl)oxy)-3,12-dimethoxy-5,6,14,14a-tetrahydroindolo[3′,2′:4,5]pyridine[2,1-a]isoquinoline-9(8H)-yl)methanol]?
Answer: CHOL [1, 5]: 11.36 mmol/L; HDL-C [1, 5]: 1.77 mmol/L; LDL-C [1, 5]: 6.16 mmol/L; TG [1, 5]: 13.26 mmol/L; CHOL [1, 6]: 15.32 mmol/L; HDL-C [1, 6]: 4.01 mmol/L; LDL-C [1, 6]: 7.44 mmol/L; TG [1, 6]: 15.46 mmol/L; contents of cholesterol (CHOL), triglyceride (TG) and low density lipoprotein (LDL-C) in the blood [1]: significantly reduced; activity at 5 µM [2]: 156%

Question: Which activity at 5 µM [2] does the source give for `COc1ccc2[nH]c3c(c2c1)CC1c2cc(OC)c(OCc4ccccc4F)cc2CCN1C3` (stereo not shown) [Example C53, 3-((2-Fluorobenzyl)oxo)-2,12-dimethoxy-5,6,8,9,14,14a-hexahydroindole[3′,2′:4,5]pyridine[2,1-a]isoquinoline] here?
Answer: 112%

Question: What about the IC50 [3, 7] of the same compound?
Answer: 17.5 µM

Question: With `COc1ccc2c(c1)c1c(n2CO)CN2CCc3cc(OC)c(OCc4ccccc4)cc3C2C1` (stereo not shown) [Example A1, (2-(Benzyloxy)-3,12-dimethoxy-5,6,14,14a-tetrahydroindolo[3′,2′:4,5]pyridine[2,1-a]isoquinoline-9(8H)-yl)methanol] as the compound, how does the CHOL [1, 5] read?
Answer: 9.75 mmol/L

Question: And the HDL-C [1, 5]?
Answer: 1.63 mmol/L

Question: And the LDL-C [1, 5]?
Answer: 5.25 mmol/L

Question: What about the TG [1, 5] of the same compound?
Answer: 8.16 mmol/L

Question: What about the CHOL [1, 6] of the same compound?
Answer: 27.93 mmol/L

Question: What about the HDL-C [1, 6] of the same compound?
Answer: 2.56 mmol/L

Question: And the LDL-C [1, 6]?
Answer: 13.64 mmol/L

Question: And the TG [1, 6]?
Answer: 28.61 mmol/L

Question: What about the “contents of cholesterol (CHOL), triglyceride (TG) and low density lipoprotein (LDL-C) in the blood” value [1] of the same compound?
Answer: significantly reduced

Question: What about the activity at 5 µM [2] of the same compound?
Answer: 148%

Question: What about the AUC(0-t) ([4]; iv) of the same compound?
Answer: 1910 ng·h/mL

Question: And the Cmax ([4]; iv)?
Answer: 1110 ng/mL

Question: What about the Tmax ([4]; iv) of the same compound?
Answer: 0.083 h

Question: What about the half-life ([4]; iv) of the same compound?
Answer: 2.58 h

Question: And the AUC(0-inf) ([4]; iv)?
Answer: 1980 ng·h/mL

Question: And the clearance ([4]; iv)?
Answer: 84.2 mL/min/kg

Question: And the MRT inf ([4]; iv)?
Answer: 3.3 h

Question: And the Vd ([4]; iv)?
Answer: 16.6 L/kg

Question: What about the AUC(0-t) ([4]; po) of the same compound?
Answer: 776 ng·h/mL

Question: What about the Cmax ([4]; po) of the same compound?
Answer: 159 ng/mL

Question: And the Tmax ([4]; po)?
Answer: 6 h

Question: And the bioavailability ([4]; po)?
Answer: 20.3%

Question: Which activity at 5 µM [2] does the source give for `COc1ccc2[nH]c3c(c2c1)CC1c2cc(OC)c(OCc4ccccc4)cc2CCN1C3c1ccc(F)cc1` (stereo not shown) [Example B55, 3-(benzyloxy)-8-(4-fluorophenyl)-2,12-dimethoxy-5,6,8,9,14,14a-hexahydroindole[3′,2′:4,5]pyridine[2,1-a]isoquinoline] here?
Answer: 125%

Question: And the IC50 [3, 7]?
Answer: > 100 µM

Question: For `COc1ccc2[nH]c3c(c2c1)CC1c2cc(OCc4ccccc4F)c(OC)cc2CCN1C3` (stereo not shown) [Example C9, 2-((2-Fluorobenzyl)oxo)-3,12-dimethoxy-5,6,8,9,14,14a-hexahydroindole[3′,2′:4,5]pyridine[2,1-a]isoquinoline], which TC ([1]; Dose 30, oral) is on record?
Answer: 36.87 ± 23.13 mmol/L

Question: For `COc1ccc2[nH]c3c(c2c1)CC1c2cc(OC)c(OCc4ccc(C)cc4)cc2CCN1C3` (stereo not shown) [Example C59], which activity at 5 µM [2] is on record?
Answer: 147%

Question: What about the IC50 [3, 7] of the same compound?
Answer: > 100 µM

Question: Which activity at 5 µM [2] does the source give for `COc1ccc2c(c1)c1c(n2CO)CN2CCc3cc(OCc4ccccc4F)c(OC)cc3C2C1` (stereo not shown) [Example A63, (3-((2-fluorobenzyl)oxy)-2,12-dimethoxy-5,6,14,14a-tetrahydroindolo[3′,2′:4,5]pyridine[2,1-a]isoquinoline-9(8H)-yl)methanol] here?
Answer: 138%

Question: And the IC50 [3, 7]?
Answer: 57.7 µM

Question: What does the source list for `COc1ccc2[nH]c3c(c2c1)CC1c2cc(OC)c(OCc4ccc(F)cc4)cc2CCN1C3` (stereo not shown) [Example C49, 3-((4-Fluorobenzyl)oxo)-2,12-dimethoxy-5,6,8,9,14,14a-hexahydroindole[3′,2′:4,5]pyridine[2,1-a]isoquinoline]?
Answer: activity at 5 µM [2]: 194%; IC50 [3, 7]: 6.58 µM; IC50 ([3]; statement in text on Table 2, read-out: antagonistic activity to α1A-AR): < 10 µM

Question: What does the source list for `COc1ccc2c(c1)c1c(n2CO)CN2CCc3cc(OCc4ccccc4)c(OC)cc3C2C1` (stereo not shown) [Example A55, (3-(Benzyloxy)-2,12-dimethoxy-5,6,14,14a-tetrahydroindolo[3′,2′:4,5]pyridine[2,1-a]isoquinoline-9(8H)-yl)methanol]?
Answer: CHOL [1, 5]: 17.86 mmol/L; HDL-C [1, 5]: 2.98 mmol/L; LDL-C [1, 5]: 9.39 mmol/L; TG [1, 5]: 19.77 mmol/L; CHOL [1, 6]: 11.81 mmol/L; HDL-C [1, 6]: 3.88 mmol/L; LDL-C [1, 6]: 5.56 mmol/L; TG [1, 6]: 6.74 mmol/L; contents of cholesterol (CHOL), triglyceride (TG) and low density lipoprotein (LDL-C) in the blood [1]: significantly reduced; activity at 5 µM [2]: 194%; AUC(0-t) ([4]; iv): 2720 ng·h/mL; Cmax ([4]; iv): 2740 ng/mL; Tmax ([4]; iv): 0.083 h; half-life ([4]; iv): 1.88 h; AUC(0-inf) ([4]; iv): 2730 ng·h/mL; clearance ([4]; iv): 61 mL/min/kg; MRT inf ([4]; iv): 1.7 h; Vd ([4]; iv): 6.41 L/kg; AUC(0-t) ([4]; po): 334 ng·h/mL; Cmax ([4]; po): 62 ng/mL; Tmax ([4]; po): 4 h; bioavailability ([4]; po): 6.2%; half-life ([4]; po): 0.71 h; AUC(0-inf) ([4]; po): 335 ng·h/mL; MRT inf ([4]; po): 4.8 h

Question: What does the source list for `COc1ccc2c(c1)c1c(n2CO)CN2CCc3cc(OCc4ccc(C)cc4)c(OC)cc3C2C1` (stereo not shown) [Example A69, (2,12-Dimethoxy-3-((4-methylbenzyl)oxy)-5,6,14,14a-tetrahydroindolo[3′,2′:4,5]pyridine[2,1-a]isoquinoline-9(8H)-yl)methanol]?
Answer: activity at 5 µM [2]: 140%; IC50 [3, 7]: > 100 µM

Question: With `COc1ccc2c(c1)c1c(n2CO)CN2CCc3cc(OC)c(OCc4ccc(C)cc4)cc3C2C1` (stereo not shown) [Example A15, (3,12-Dimethoxy-2-((4-methylbenzyl)oxy)-5,6,14,14a-tetrahydroindolo[3′,2′:4,5]pyridine[2,1-a]isoquinoline-9(8H)-yl)methanol] as the compound, how does the activity at 5 µM [2] read?
Answer: 115%

Question: For `COc1cc2c(cc1OC)C1Cc3c(n(CO)c4ccccc34)CN1CC2` (stereo not shown) [Example A38, (2,3-dimethoxy-5,6,14,14a-tetrahydroindolo[3′,2′:4,5]pyridine[2,1-a]isoquinoline-9(8H)-yl)methanol], which activity at 5 µM [2] is on record?
Answer: 123%
